Test results as given in ChEMBL document CHEMBL1125598, “HIV protease: a novel chemotherapeutic target for AIDS” (J Med Chem, 1991).
“And” between values parts separate entries of the source, which are not always exact repeats. Equal entries are not always repeated. Peptide text beside a SMILES is read from it.

How the values were obtained:
[1] = molecular target: T1, Human immunodeficiency virus type 1 protease (Human immunodeficiency virus 1, UniProt Q72874); assay: The compound was tested for its affinity against HIV-1 protease
[2] = molecular target: T1, Human immunodeficiency virus type 1 protease; assay: Binding affinity for HIV-1 protease
[3] = test system: Human immunodeficiency virus 1; assay: Concentration for prevention of spread of HIV infection; range 25-100 uM; type: functional, organism-based
H9 [4] = assay: Inhibitory activity against HIV-1IIIb in H-9 cells using immunofluorescence; type: functional, Homo sapiens
MT4 = assay: Inhibitory activity against HIV-1 mB in MT-4 cells; Range 20-150 nM; type: functional, cell-based; details: Homo sapiens
[5] = Toxicity against HIV-1 mB in MT-4 cells; Range 10 to >100 uM; type: cell-based, MT4; details: human, read-out: TC50 (the source's name)
[6] = Toxicity against HIV-1 mB in H9 cells; Range 10 to >100 uM; type: cell-based; details: human, read-out: TC50 (the source's name)
H9 [7] = assay: Inhibitory activity against HIV-1 mB in H9 cells; Range 20-150 nM; type: functional, cell-based; details: Homo sapiens
JM1 = assay: Antiviral activity in HIV-1GB8 infected JM cells; type: functional, cell-based; details: Homo sapiens
C8166 = assay: Antiviral activity in HIV-1RF infected C8166 cells; type: functional, cell-based; details: Homo sapiens

Structure (SMILES) | IC50 [1] | Ki [2] [nM] | further results
CCCC[C@H](CN[C@H](CCCC)C(=O)N[C@@H](CCC(N)=O)C(=O)N[C@@H](CCCNC(=N)N)C(N)=O)NC(=O)[C@@H](NC(=O)[C@@H](NC(C)=O)[C@@H](C)O)[C@@H](C)CC | 780 nM | – | –
CC[C@H](C)[C@H](NC(=O)[C@@H]1CCCN1C[C@H](Cc1ccccc1)NC(=O)[C@H](CC(N)=O)NC(=O)[C@H](CCC(N)=O)NC(=O)[C@H](CO)NC(=O)[C@@H](N)C(C)C)C(=O)N[C@H](C(=O)O)C(C)C (HELM PEPTIDE1{V.S.Q.N.[O=C([C@@H]1CCCN1C[C@H](Cc1ccccc1)N[*:1])[*:2]].I.V}$$$$V2.0) | 3.5 nM | – | –
CC(C)[C@H](NC(=O)[C@@H](NC(=O)C(Cc1ccccc1)CP(=O)(O)[C@@H](Cc1ccccc1)NC(=O)c1ccccc1)C(C)C)C(N)=O (stereo partly drawn) | – | 0.6 | –
CC[C@H](C)[C@H](NC(=O)[C@H](C(C)C)[C@@H](O)[C@H](O)[C@H](CC1CCCCC1)NC(=O)[C@H](Cc1c[nH]cn1)NC(=O)COc1cccc2ccccc12)C(=O)NCc1ccccn1 | – | < 1 | –
CC(C)(C)OC(=O)C1CCCN1C[C@@H](O)[C@H](Cc1ccccc1)NC(=O)[C@H](CC(N)=O)NC(=O)OCc1ccccc1 (stereo partly drawn) | 140 nM | – | –
CC(C)(C)NC(=O)C1CCCCN1C[C@@H](O)[C@H](Cc1ccccc1)NC(=O)[C@H](CC(N)=O)NC(=O)c1ccc2ccccc2n1 (stereo partly drawn) | 2 nM | – | –
CC(C)[C@H](NC(=O)[C@@H](NC(=O)[C@@H]1CCCN1C[C@H](Cc1ccccc1)NC(=O)[C@H](C)NC(=O)[C@H](C)NC(=O)[C@@H](N)CO)C(C)C)C(N)=O (HELM PEPTIDE1{S.A.A.[O=C([C@@H]1CCCN1C[C@H](Cc1ccccc1)N[*:1])[*:2]].V.V.[am]}$$$$V2.0) | 19000 nM | – | –
CC(C)[C@H](NC(=O)[C@@H](NC(=O)C1CCCN1CP(=O)(O)[C@@H](Cc1ccccc1)NC(=O)c1ccccc1)C(C)C)C(N)=O (stereo partly drawn) | – | 450 | –
COC(=O)[C@@H](NC(=O)[C@@H](NC(=O)CC[C@@H](O)[C@@H](Cc1ccccc1)NC(=O)[C@H](C)NC(=O)[C@H](C)N)C(C)C)C(C)C (HELM PEPTIDE1{A.A.[O=C(CC[C@@H](O)[C@@H](Cc1ccccc1)N[*:1])[*:2]].V.V.[CO[*:1]]}$$$$V2.0) | – | 18 | Concentration [3]: 100 µM
CC(C)(C)OC(=O)N[C@@H](Cc1ccccc1)[C@@H](O)C[C@@H](Cc1ccccc1)C(=O)N[C@H]1c2ccccc2C[C@H]1O | – | – | IC100 (H9 [4]): 200 nM
CC(C)[C@H](NC(=O)OCc1ccccc1)C(=O)N[C@@H](Cc1ccccc1)C(O)[C@H](Cc1ccccc1)NC(=O)[C@@H](NC(=O)OCc1ccccc1)C(C)C | 3 nM | – | –
COC(=O)[C@@H](NC(=O)[C@@H](NC(=O)CCP(=O)(O)[C@@H](Cc1ccccc1)NC(=O)[C@H](C)NC(=O)[C@H](C)NC(=O)[C@@H](N)CO)C(C)C)C(C)C (HELM PEPTIDE1{S.A.A.[O=C(CCP(=O)(O)[C@@H](Cc1ccccc1)N[*:1])[*:2]].V.V.[CO[*:1]]}$$$$V2.0) | – | 4400 | –
CC(=O)N[C@@H](Cc1ccccc1)C(O)[C@H](Cc1ccccc1)NC(C)=O | > 10000 nM | – | –
CC(C)[C@H](NC(=O)OCc1ccccc1)C(=O)N[C@@H](Cc1ccccc1)[C@H](O)[C@H](O)[C@H](Cc1ccccc1)NC(=O)[C@@H](NC(=O)OCc1ccccc1)C(C)C | 0.2 nM and < 0.4 nM | – | IC50 (MT4): 20 nM; CC50 [5]: 10000 nM; CC50 [6]: 10000 nM; IC50 (H9 [7]): 20 nM
CC[C@H](C)[C@H](NC(=O)[C@@H](C[C@H](O)[C@H](CC1CCCCC1)NC(=O)[C@H](C)NC(C)(C)C)C(C)C)C(=O)NCc1ccccn1 | – | 70 | –
CC(C)[C@H](NC(=O)[C@@H](NC(=O)C(Cc1ccccc1)CP(=O)(O)[C@@H](Cc1ccccc1)NC(=O)[C@@H](NC(=O)[C@@H](NC(=O)OC(C)(C)C)C(C)C)C(C)C)C(C)C)C(N)=O (stereo partly drawn) (HELM PEPTIDE1{[CC(C)(C)OC(=O)[*:2]].V.V.[O=C(C(Cc1ccccc1)CP(=O)(O)[C@@H](Cc1ccccc1)N[*:1])[*:2]].V.V.[am]}$$$$V2.0) | – | 0.04 | –
CC[C@H](C)[C@H](NC(=O)[C@@H](C[C@H](O)[C@H](CC(C)C)NC(=O)[C@H](Cc1c[nH]cn1)NC(=O)[C@H](Cc1ccccc1)NC(=O)[C@@H]1CCCN1C(=O)[C@H](Cc1c[nH]cn1)NC(=O)OC(C)(C)C)C(C)C)C(=O)N[C@@H](Cc1c[nH]cn1)C(=O)O (HELM PEPTIDE1{[CC(C)(C)OC(=O)[*:2]].H.P.F.H.[CC(C)C[C@H](N[*:1])[C@@H](O)C[C@H](C(=O)[*:2])C(C)C].I.H}$$$$V2.0) | – | 5 | –
COC(=O)[C@@H](NC(=O)[C@@H](NC(=O)C[C@H](O)[C@H](Cc1ccccc1)NC(=O)[C@H](C)NC(=O)[C@H](C)NC(=O)[C@@H](N)CO)C(C)C)C(C)C (HELM PEPTIDE1{S.A.A.[O=C(C[C@H](O)[C@H](Cc1ccccc1)N[*:1])[*:2]].V.V.[CO[*:1]]}$$$$V2.0) | – | 1200 | –
CC(C)C[C@H](NC(=O)[C@H](Cc1ccccc1)CP(=O)(O)[C@H](Cc1ccccc1)NC(=O)OC(C)(C)C)C(=O)N[C@@H](Cc1ccccc1)C(N)=O | 9 nM | – | –
CC[C@H](C)[C@H](NC(=O)C1CCCN1C[C@H](C)[C@H](Cc1ccccc1)NC(=O)[C@H](CC(N)=O)NC(=O)[C@H](CC(C)C)NC(=O)[C@H](CO)NC(C)=O)C(=O)N[C@H](C(=O)OC)C(C)C (stereo partly drawn) (HELM PEPTIDE1{[ac].S.L.N.[C[C@@H](CN1CCCC1C(=O)[*:2])[C@H](Cc1ccccc1)N[*:1]].I.V.[CO[*:1]]}$$$$V2.0) | – | 0.66 | –
CC(=O)N[C@@H](CO)C(=O)N[C@@H](CCC(N)=O)C(=O)N[C@@H](CC(N)=O)C(=O)N[C@@H](Cc1ccccc1)[C@@H](O)CC(=O)N[C@H](C(=O)N[C@H](C(N)=O)C(C)C)C(C)C (HELM PEPTIDE1{[ac].S.Q.N.[O=C(C[C@H](O)[C@H](Cc1ccccc1)N[*:1])[*:2]].V.V.[am]}$$$$V2.0) | – | 39000 | –
CC(C)(C)NC(=O)[C@H]1C[C@@H]2CCCC[C@@H]2CN1C[C@@H](O)[C@H](Cc1ccccc1)NC(=O)[C@H](CC(N)=O)NC(=O)c1ccc2ccccc2n1 | – | – | IC50 (JM1): 2.5 nM; IC50 (C8166): 2 nM
